Laboratory results as given in US6818656B2, “Method and composition for treatment of irritable bowel disease” (University of Florida, priority 2001, dated 2004).
Like-named read-outs stand apart in the source and are kept apart here.

Tests used:
[1] = tested on: castor oil-induced diarrhea; conditions: cited from earlier work; for activity in castor oil-induced diarrhea model (in words): rodent
[2] = cited from earlier work
[3] = compared with DEHSPM; cited from earlier work
[4] = tested on: diarrhea; conditions: animal models and clinic; cited from earlier work
[5] = tested on: stress-induced fecal output; experiment: Psychological stress-induced (water avoidance) IBS model, SC administration; format: in vivo; conditions: for mortality of rats after drug administration: ~24 h post-dosing
Source text: (§1) For drug preparation and administration, the compounds were put into solution with sterile normal saline and sonicated briefly, if necessary. The drugs were made up at concentrations such that the rats received the drugs PO or SC at the rate of 1 cc per kilogram. Mice received the CHX(3,4,3)-trans IP at 1 cc per 100 grams. The solutions were made fresh the day of the study. Control animals received an equivalent amount of saline PO or SC.
Animal care and experimental procedures were approved by the Institutional Animal Care and Use Committee. Male Sprague-Dawley rats (250-350 g, Harlan Sprague-Dawley, Indianapolis, Ind.) were housed in polycarbonate cages in a temperature- and humidity-controlled room with a 12-hour light/dark cycle. The experiments were performed at the same time of the day to decrease diurnal variability. A typical experiment involved 20 rats: 5 saline-treated controls and 5 pretreated with polyamine analogues at each of three doses as either a SC injection or a PO gavage. The rats in the SC studies and in one set of experiments involving PO administration were allowed ad libitum access to a standard rodent diet and tap water until the morning of the experiment. Stress was initiated 30 minutes post drug as described below. In another set of experiments involving PO administration, the animals were fasted overnight but were allowed free access to water. […] In a final experiment, non-stressed control rats were injected with saline SC and housed in individual polycarbonate cages. The fecal output (number of pellets) of the stressed and unstressed animals was recorded at 30-min intervals for a 6-h period, during which they received no food or water.
(§2) To initiate the stress, water was added to each cage to a depth of at least 4.5 cm, i.e., within 0.5 cm of the top of the Pyrex dish. To avoid contact with water, the rats stand on the glass dish for the 6 h of the study. Stool output was expressed as the total number of fecal pellets excreted over the 6-h collection period. Percent reduction was calculated by dividing the mean value from the treated animals (T) by the mean value from the control animals (C), subtracting the resulting quotient from 1.0, and multiplying by 100 [i.e., (1.0−T/C)×100].
(§3) A one-tailed t-test assuming unequal variance was performed on the stool output data of the treated vs control (0 mg/kg) animals for each compound. A value of P<0.05 was considered significant.
The psychological stress-induced IBS model involves subjecting the rats to an aversive stimulus (water) and observing the increase in fecal output over a period of time. […] Control rats received an equivalent amount of saline SC.

[6] = tested on: stress-induced fecal output; experiment: Psychological stress-induced (water avoidance) IBS model, PO administration by gavage; format: in vivo, rat; conditions: for oral activity against stress-induced fecal output (in words): PO gavage, non-fasted rats, 11.6-115.6 μmol/kg
Source text: as §1
Animal care and experimental procedures were approved by the Institutional Animal Care and Use Committee. Male Sprague-Dawley rats (250-350 g, Harlan Sprague-Dawley, Indianapolis, Ind.) were housed in polycarbonate cages in a temperature- and humidity-controlled room with a 12-hour light/dark cycle. The experiments were performed at the same time of the day to decrease diurnal variability. A typical experiment involved 20 rats: 5 saline-treated controls and 5 pretreated with polyamine analogues at each of three doses as either a SC injection or a PO gavage. The rats in the SC studies and in one set of experiments involving PO administration were allowed ad libitum access to a standard rodent diet and tap water until the morning of the experiment. Stress was initiated 30 minutes post drug as described below. In another set of experiments involving PO administration, the animals were fasted overnight but were allowed free access to water. The animals were then stressed from ½ h to 2 h post-drug (data not shown). In a final experiment, non-stressed control rats were injected with saline SC and housed in individual polycarbonate cages. The fecal output (number of pellets) of the stressed and unstressed animals was recorded at 30-min intervals for a 6-h period, during which they received no food or water.
as §2, with “Once the drug had been administered, the animals were housed individually in polycarbonate cages containing a clear 70×50 mm Pyrex crystallization dish (Fisher, Pittsburgh, Pa.) inverted in the center and held in place with vacuum grease. To initiate” for “To initiate”
as §3
Because an orally active compound would be desirable for the treatment of IBS, selected analogues utilizing oral administration in the same model were assessed. In the initial studies animals were utilized that had been fasted overnight. Rodents were then given the drug of interest PO by gavage and stressed ½ h, 1 h, or 2 h post-drug. Unfortunately, because of the low baseline stool output in fasted control rats, the reductions in fecal output observed upon drug administration cannot be reported with any confidence (data not shown). Thereafter, only non-fasted animals were employed and were given the agents by gavage at doses of 11.6, 23.2, 57.8, or 115.6:mol/kg 30 minutes before initiating the stress. […] At doses of 11.6 and 23.2:mol/kg, CHX(3,4,3)-trans reduced stooling by about 80% (P=0.001 and <0.001, respectively). DEHSPM was effective at a dose of […]:mol/kg (40% diminution of fecal output; P<0.01), and DE(5,4,5) was active at doses of 23.2 and 57.8:mol/kg (55 and 73% reductions in fecal output, respectively; P<0.001 for both doses).

[7] = Acute toxicity assessment, single intraperitoneal injection; format: in vivo; conditions: toxic doses, mice
Procedure: For the acute toxicity assessment the CHX(3,4,3)-trans was administered to female CD-1 mice (Charles River, Wilmington, Mass.) as a single intraperitoneal (IP) injection. The animals were carefully observed post-dosing and were scored 2 h after administration of the drug.
as §1

[8] = tested on: stress-induced fecal output; experiment: Psychological stress-induced (water avoidance) IBS model, SC administration; format: in vivo; conditions: 57.8 μmol/kg SC; experiment stopped after 2 h, results after 2 h
[9] = mice; N-de-ethylated metabolite of DEHSPM; cited from earlier work
[10] = dog; relative to 2-3 weeks in mice; cited from earlier work
[11] = tested on: constipation-predominant IBS; conditions: eight patients, 16 mg three times a week, eight weeks; cited from earlier work
[12] = dogs, 4.3 mg/kg/day for 14 days or 2.15 mg/kg/d for 28 days
[13] = 2.3 μmol/kg SC, stress 30 min post drug, 6-h collection
[14] = 11.6 μmol/kg SC, 6-h collection
[15] = 57.8 μmol/kg SC, 6-h collection
[16] = 57.8 μmol/kg SC, listed as DBSPM
[17] = Rattus norvegicus, sc, 2 h, read-out: % Reduction

CCNCC[C@@H](O)CNCCCCNC[C@H](O)CCNCC [(HO)2DEHSPM, (3R, 12R)-N^1,N^14-diethyl-3,12-dihydroxyhomospermine]
activity in castor oil-induced diarrhea model (in words) [1]: considerably decreased stool output | onset of exocrine pancreatic insufficiency post-final dose [2, 12]: approximately 40 days | pancreatic toxicity [2, 12]: exocrine pancreatic insufficiency developed | induction of cardiac bigeminies ([2]; treated dogs): minimal | residence time in most mouse tissues [3]: shorter than that of DEHSPM | antidiarrheal activity (in words) [4]: as effective an antidiarrheal as DEHSPM

CCNCCCNCCCNCCCNCC [Compound 1, N^1,N^11-diethylnorspermine]
Stool Output [5, 13]: 17.4 ± 5.1 number of fecal pellets | Stool Output [5, 14]: 15.2 ± 4.5 number of fecal pellets | Stool Output [5, 15]: 13.4 ± 5.9 number of fecal pellets | activity at diminishing stress-induced fecal output (in words) ([5]; SC administration to stressed rats, listed as DENSPM): completely ineffective | oral activity against stress-induced fecal output (in words) [6]: only CHX(3,4,3)-trans, DEHSPM, and DE(5,4,5) showed any activity at all | activity in castor oil-induced diarrhea model (in words) ([1]; listed as DENSPM): ineffective in reducing stooling

CCNCCCNCCCCNCCCNCC [Compound 3, N^1,N^12 diethylspermine]
Stool Output ([5]; 23.2 μmol/kg SC, 6-h collection): 12.5 ± 2.9 number of fecal pellets | Stool Output ([5]; 35.4 μmol/kg SC, 6-h collection): 9.0 ± 6.3 number of fecal pellets | Stool Output ([5]; 61 μmol/kg SC, 6-h collection): 2.8 ± 2.7 number of fecal pellets | inhibition in vivo at 23.2 µmol/kg ([5]; Rattus norvegicus, 23.2 μmol/kg SC, vs stressed controls, 6 h, read-out: % Reduction): 35% | inhibition in vivo at 35.4 µmol/kg ([5]; Rattus norvegicus, 35.4 μmol/kg SC, vs stressed controls, 6 h, read-out: % Reduction): 53% | inhibition in vivo at 61 µmol/kg ([5]; Rattus norvegicus, 61 μmol/kg SC, vs stressed controls, 6 h, read-out: % Reduction): 90% | oral activity against stress-induced fecal output (in words) [6]: only CHX(3,4,3)-trans, DEHSPM, and DE(5,4,5) showed any activity at all | signs of acute toxicity in mice [7]: generalized depression with respiratory failure

CCCCNCCCNCCCCNCCCNCCCC [Compound 5]
Stool Output [5, 13]: 14.0 ± 4.8 number of fecal pellets | toxic effects observed in stressed rats ([5]; 11.6 μmol/kg SC): ^eDue to severe CNS toxicity, the experiment was stopped after 2 h; the results after 2 h are reported. | Stool Output ([5]; 11.6 μmol/kg SC, experiment stopped after 2 h, results after 2 h): 0 ± 0 number of fecal pellets | % Reduction ([5]; 11.6 μmol/kg SC, experiment stopped after 2 h, results after 2 h, listed as DBSPM): completely eliminated fecal output | toxic effects observed in stressed rats ([5]; 11.6 μmol/kg SC, listed as DBSPM): severe neurotoxicity | toxic effects observed in stressed rats ([5]; 57.8 μmol/kg SC): ^eDue to severe CNS toxicity, the experiment was stopped after 2 h; the results after 2 h are reported. | mortality of rats after drug administration ([5]; 57.8 μmol/kg SC): ^fAll rats in this group died ˜24 h after drug administration. | mortality of rats after drug administration [5, 16]: died within ˜24 h post-dosing | toxic effects observed in stressed rats [5, 16]: severe neurotoxicity | inhibition in vivo at 11.6 µmol/kg [5, 17]: 100% | inhibition in vivo at 57.8 µmol/kg [5, 17]: 100% | inhibition in vivo at 2.3 µmol/kg ([5]; Rattus norvegicus, 2.3 μmol/kg SC, vs stressed controls, 6 h, read-out: % Reduction): 39% | Stool Output [8]: 0 ± 0 number of fecal pellets | neurotoxicity in rats at subtherapeutic doses ([1]; doses equivalent to a 5 mg/kg dose of DEHSPM): Signs of neurotoxicity

CCNCCCCNCCCCNCCCCNCC [Compound 13, N^1,N^14-diethylhomospermine]
Stool Output [5, 14]: 2.1 ± 2.1 number of fecal pellets | Stool Output [5, 15]: 0 ± 0 number of fecal pellets | inhibition in vivo at 11.6 µmol/kg ([5]; Rattus norvegicus, 11.6 μmol/kg SC, vs stressed controls, 6 h, read-out: % Reduction): 89% | inhibition in vivo at 57.8 µmol/kg ([5]; Rattus norvegicus, 57.8 μmol/kg SC, vs stressed controls, 6 h, read-out: % Reduction): 100% | Stool Output ([6]; 115.6 μmol/kg PO, 6-hr collection): 10.6 ± 1.8 number of fecal pellets | % Reduction ([6]; 115.6 μmol/kg PO, vs stressed controls, 6 hr): 40% | diminution of fecal output ([6]; 15.6 :mol/kg PO): 40% | signs of acute toxicity in mice [7]: generalized depression with respiratory failure | time at which arrhythmia was apparent in 6-lead EKG ([2]; SC, dogs, 2 mg/kg daily): as early as three days | cardiac effect ([2]; SC, three dogs, 2 mg/kg daily for 11-17 days): ventricular bigeminies | antidiarrheal activity (in words) [4]: very potent antidiarrheal

NCCCCNCCCCNCCCCN [HSPM, homospermine]
half-life [9]: 2-3 weeks | half-life [10]: even longer

C=C1CCC2(O)C3Cc4ccc(OC5OC(C(=O)O)C(O)C(O)C5O)c5c4C2(CCN3CC2CC2)C1O5 (stereo not shown) [Nalmefene glucuronide]
abdominal pain or bloating [11]: did not reduce abdominal pain or bloating | transit time and stool frequency [11]: decreased transit time and increased stool frequency
